# Reference: ChEMBL document CHEMBL1128771 (Bioorg Med Chem Lett, 1995)
# Assays:
# [1] = biological target: Dihydroorotate dehydrogenase (quinone), mitochondrial (Homo sapiens, UniProt Q02127)
# Description: Inhibition measurement of orotate formation from radiolabeled dihydroorotate, using partially purified DHODase isolated from human liver.
# [2] = Ability to inhibit proliferation in human lymphocytes by mixed lymphocyte reaction (MLR); format: functional, cell-based
# Dihydroorotate dehydrogenase (quinone), mitochondrial, sequence (Q02127 whole entry): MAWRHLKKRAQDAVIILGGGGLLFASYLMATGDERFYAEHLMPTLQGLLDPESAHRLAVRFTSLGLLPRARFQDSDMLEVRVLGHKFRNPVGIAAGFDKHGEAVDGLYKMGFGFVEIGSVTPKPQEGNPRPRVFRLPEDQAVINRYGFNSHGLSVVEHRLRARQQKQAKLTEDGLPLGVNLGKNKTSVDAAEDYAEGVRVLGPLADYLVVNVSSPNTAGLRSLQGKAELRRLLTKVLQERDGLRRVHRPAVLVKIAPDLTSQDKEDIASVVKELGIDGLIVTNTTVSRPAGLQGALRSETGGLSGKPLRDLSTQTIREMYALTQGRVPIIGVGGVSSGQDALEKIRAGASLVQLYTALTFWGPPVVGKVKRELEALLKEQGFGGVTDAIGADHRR
Ki [1],SMILES,IC50 ([2]; Homo sapiens),IC50 [2]
270 nM,CSc1ccc2nc(-c3ccc(-c4ccccc4)cc3)c(C)c(C(=O)O)c2c1,> 500 nM,–
400 nM,COC(=O)c1c(C)c(-c2ccc(-c3ccccc3)cc2)nc2ccc(F)cc12,> 500 nM,–
230 nM,Cc1c(-c2ccc(-c3ccc(C(F)(F)F)cc3)cc2)nc2ccc(F)cc2c1C(=O)O,> 500 nM,–
300 nM,Cc1c(-c2ccc3ccccc3c2)nc2ccc(F)cc2c1C(=O)O,> 500 nM,–
> 500 nM,COC(=O)c1ccc2nc(-c3ccc(-c4ccccc4)cc3)c(C)c(C(=O)O)c2c1,> 500 nM,–
> 500 nM,Cc1c(-c2ccc(-c3ccccc3)cc2)nc2ccc(O)cc2c1C(=O)O,> 500 nM,–
> 500 nM,Cc1c(-c2cccc3ccccc23)nc2ccc(F)cc2c1C(=O)O,> 500 nM,–
210 nM,O=C(O)c1cc(-c2ccc(-c3ccccc3)cc2)nc2sccc12,> 500 nM,–
20 nM,Cc1c(-c2ccc(-c3ccccc3)cc2)nc2ccc(Cl)cc2c1C(=O)O,35 nM,–
210 nM,Cc1c(-c2ccc(-c3ccc(F)cc3)cc2)nc2ccc(F)cc2c1C(=O)O,260 nM,–
220 nM,Cc1c(-c2ccc(-c3ccccc3)cc2)nc2cc(Cl)ccc2c1C(=O)O,> 500 nM,–
11 nM,Cc1c(-c2ccc(-c3ccc(O)cc3F)cc2)nc2ccc(F)cc2c1C(=O)O,300 nM,–
140 nM,Cc1c(-c2ccc(-c3ccc(Cl)cc3)cc2)nc2ccc(F)cc2c1C(=O)O,> 500 nM,–
13 nM,COc1c(-c2ccc(-c3ccccc3)cc2)nc2ccc(F)cc2c1C(=O)O,250 nM,–
38 nM,Cc1c(-c2ccc(-c3ccc(Br)cc3)cc2)nc2ccc(F)cc2c1C(=O)O,> 500 nM,–
> 500 nM,O=C(O)c1cc(-c2ccc(-c3ccccc3)cc2)nc2ocnc12,> 500 nM,–
10 nM,O=C(O)c1cc(-c2ccc(-c3ccccc3)cc2)nc2ccc(F)cc12,150 nM,–
> 500 nM,Cc1c(-c2ccccc2)nc2ccc(F)cc2c1C(=O)O,> 500 nM,–
8.4 nM,Cc1c(-c2ccc(-c3ccccc3)cc2)nc2ccc(C(F)(F)F)cc2c1C(=O)O,7 nM,–
> 500 nM,Cc1c(-c2ccc(-c3ccccc3F)cc2)nc2nc[nH]c2c1C(=O)O,> 500 nM,–
> 500 nM,Cn1cnc2c(C(=O)O)cc(-c3ccc(-c4ccccc4)cc3)nc21,> 500 nM,–
> 500 nM,Cc1c(-c2ccc(-c3ccccc3)cc2)nc2ccc(F)cc2c1CO,> 500 nM,–
150 nM,Cc1c(-c2ccc(-c3ccccc3)cc2)nc2c(Cl)cccc2c1C(=O)O,> 500 nM,–
> 500 nM,CC(=O)Nc1ccc2nc(-c3ccc(-c4ccccc4)cc3)c(C)c(C(=O)O)c2c1,> 500 nM,–
25 nM,Cc1c(-c2ccc(-c3ccccc3)cc2)nc2cccc(Cl)c2c1C(=O)O,150 nM,–
> 500 nM,Cc1c(-c2ccc(-c3ccccc3)cc2)nc2ccc(F)cc2c1-n1cnnn1,> 500 nM,–
> 500 nM,CC(=O)OCc1c(C)c(-c2ccc(-c3ccccc3)cc2)nc2ccc(F)cc12,> 500 nM,–
> 500 nM,Cc1c(-c2cccc(-c3ccccc3)c2)nc2ccc(F)cc2c1C(=O)O,> 500 nM,–
390 nM,Cc1c(-c2ccc(-c3ccccc3)s2)nc2ccc(F)cc2c1C(=O)O,> 500 nM,–
> 500 nM,Cc1c(-c2ccc(-c3ccccc3)cc2)nc2ccc(F)cc2c1C(N)=O,> 500 nM,–

# Continued, molecule first:
SMILES,Ki [1],IC50 ([2]; Homo sapiens),IC50 [2]
O=C(O)c1c(O)c(-c2ccc(-c3ccccc3)cc2)nc2ccc(F)cc12,–,> 500 nM,–
CCc1c(-c2ccc(-c3ccccc3)cc2)nc2ccc(F)cc2c1C(=O)O,30 nM,210 nM,–
CCCCCCc1ccc(-c2nc3ccc(F)cc3c(C(=O)O)c2C)cc1,60 nM,> 500 nM,–
O=C(O)c1c2c(nc3ccc(F)cc13)-c1ccc(-c3ccccc3)cc1CC2,17 nM,14 nM,–
Cc1c(-c2ccc(C3CCCCC3)cc2)nc2ccc(F)cc2c1C(=O)O,28 nM,25 nM,–
Cc1c(-c2ccc(-c3ccccc3F)cc2)nc2ncccc2c1C(=O)O,210 nM,> 500 nM,–
Cc1c(-c2ccc(-c3cccs3)cc2)nc2ccc(F)cc2c1C(=O)O,56 nM,350 nM,–
Cc1c(-c2ccc(-c3ccccc3F)cc2)nc2ccc(F)cc2c1C(=O)O [BREQUINAR],–,–,15 nM
Cc1c(-c2ccc(Oc3ccccc3)cc2)nc2ccc(F)cc2c1C(=O)O,29 nM,500 nM,–
Cc1c(-c2ccc(C(C)(C)C)cc2)nc2ccc(F)cc2c1C(=O)O,40 nM,400 nM,–
Cc1c(-c2ccc(-c3ccccc3F)cc2)nc2cccnc2c1C(=O)O,500 nM,> 500 nM,–
Cc1ccc2nc(-c3ccc(-c4ccccc4)cc3)c(C)c(C(=O)O)c2c1,10 nM,380 nM,–
Cc1c(-c2ccc(-c3cccnc3)cc2)nc2ccc(F)cc2c1C(=O)O,200 nM,> 500 nM,–
Cc1c(-c2ccc(-c3ccccc3F)cc2)nc2ccncc2c1C(=O)O,420 nM,> 500 nM,–
Cc1c(-c2ccc(-c3ccccc3)cc2)nc2ccccc2c1C(=O)O,–,–,180 nM
Cc1c(-c2ccc(-c3ccccc3F)cc2)nc2cnccc2c1C(=O)O,48 nM,290 nM,–
Cc1c(-c2ccc(-c3cccc(F)c3)cc2)nc2ccc(F)cc2c1C(=O)O,50 nM,20 nM,–
Cc1ccc(-c2ccc(-c3nc4ccc(F)cc4c(C(=O)O)c3C)cc2)cc1,24 nM,150 nM,–
Cc1c(-c2ccc(-c3ccccc3)cc2)nc2ccc(F)cc2c1O,> 500 nM,> 500 nM,–
Cc1c(CCCCc2ccccc2)nc2ccc(F)cc2c1C(=O)O,> 500 nM,> 500 nM,–
Cc1c(-c2cccc(Oc3ccccc3)c2)nc2ccc(F)cc2c1C(=O)O,63 nM,> 500 nM,–
CSc1c(-c2ccc(-c3ccccc3)cc2)nc2ccc(F)cc2c1C(=O)O,13 nM,18 nM,–
Cc1c(-c2ccc(-n3ccnc3)cc2)nc2ccc(F)cc2c1C(=O)O,> 500 nM,> 500 nM,–
